According to ChEMBL document CHEMBL5715952 (Oncotarget, 2015):

Key:
[1] = Inhibition of MET/VEGFR/Tie2 in human U-266 cells assessed as reduction of cell growth incubated for 72 hrs by CellTiter 96 aqueous one solution cell proliferation assay; type: cell-based; details: U-266, 72 h
[2] = Ratio of IC50 for inhibition of MET/VEGFR/Tie2 in human ANBL6 cells assessed as reduction of cell viability to IC50 for inhibition of MET/VEGFR/Tie2 in human ANBL6/BR resistant cells assessed as reduction of cell viability; details: condition multiple myeloma
[3] = Inhibition of MET/VEGFR/Tie2 in Melphalan Resistant human RPMI-8226 cells assessed as reduction of cell growth incubated for 72 hrs by CellTiter 96 aqueous one solution cell proliferation assay; type: cell-based; details: Melphalan-resistant RPMI-8226 cell
[4] = Inhibition of MET/VEGFR/Tie2 in human RPMI-8226 cells assessed as reduction of cell growth incubated for 72 hrs by CellTiter 96 aqueous one solution cell proliferation assay; type: cell-based; details: RPMI-8226, 72 h
[5] = Inhibition of MET/VEGFR/Tie2 in human ANBL-6 cells assessed as reduction of cell growth incubated for 72 hrs by CellTiter 96 aqueous one solution cell proliferation assay; type: cell-based; details: ANBL-6, 72 h
[6] = Ratio of IC50 for inhibition of MET/VEGFR/Tie2 in human RPMI-8226 cells assessed as reduction of cell viability to IC50 for inhibition of MET/VEGFR/Tie2 in human RPMI-8226/BR resistant cells assessed as reduction of cell viability; details: condition multiple myeloma
[7] = Inhibition of MET/VEGFR/Tie2 in bortezomib Resistant human RPMI-8226 cells assessed as reduction of cell growth incubated for 72 hrs by CellTiter 96 aqueous one solution cell proliferation assay; type: cell-based; details: Bortezomib-resistant RPMI-8226, 72 h
[8] = Ratio of IC50 for inhibition of MET/VEGFR/Tie2 in human RPMI-8226 cells assessed as reduction of cell viability to IC50 for inhibition of MET/VEGFR/Tie2 in human melphalan-resistant RPMI-8226 cells assessed as reduction of cell viability; details: time 72 hrs; condition multiple myeloma
[9] = Inhibition of MET/VEGFR/Tie2 in human bortezomib-resistant ANBL6 cells assessed as reduction of cell growth incubated for 72 hrs by CellTiter 96 aqueous one solution cell proliferation assay; type: cell-based
[10] = Inhibition of MEK/MAPK in human U-266 cells assessed as reduction of cell growth incubated for 72 hrs by CellTiter 96 aqueous one solution cell proliferation assay; type: cell-based; details: U-266, 72 h
[11] = Ratio of IC50 for inhibition of MEK/MAPK in human RPMI-8226 cells assessed as reduction of cell viability to IC50 for inhibition of MEK/MAPK in human melphalan-resistant RPMI-8226 cells assessed as reduction of cell viability; details: time 72 hrs; condition multiple myeloma
[12] = Inhibition of MEK/MAPK in melphalan-resistant human RPMI-8226 cells assessed as reduction of cell growth incubated for 72 hrs by CellTiter 96 aqueous one solution cell proliferation assay; type: cell-based; details: Melphalan-resistant RPMI-8226 cell
[13] = Inhibition of MEK/MAPK in human bortezomib-resistant ANBL6 cells assessed as reduction of cell growth incubated for 72 hrs by CellTiter 96 aqueous one solution cell proliferation assay; type: cell-based
[14] = Inhibition of MEK/MAPK in bortezomib Resistant human RPMI-8226 cells assessed as reduction of cell growth incubated for 72 hrs by CellTiter 96 aqueous one solution cell proliferation assay; type: cell-based; details: Bortezomib-resistant RPMI-8226, 72 h
[15] = Ratio of IC50 for inhibition of MEK/MAPK in human ANBL6 cells assessed as reduction of cell viability to IC50 for inhibition of MEK/MAPK in human ANBL6/BR resistant cells assessed as reduction of cell viability; details: condition multiple myeloma
[16] = Ratio of IC50 for inhibition of MEK/MAPK in human RPMI-8226 cells assessed as reduction of cell viability to IC50 for inhibition of MEK/MAPK in human RPMI-8226/BR resistant cells assessed as reduction of cell viability; details: condition multiple myeloma
[17] = Inhibition of MEK/MAPK in human ANBL-6 cells assessed as reduction of cell growth incubated for 72 hrs by CellTiter 96 aqueous one solution cell proliferation assay; type: cell-based; details: ANBL-6, 72 h
[18] = Inhibition of MEK/MAPK in human RPMI-8226 cells assessed as reduction of cell growth incubated for 72 hrs by CellTiter 96 aqueous one solution cell proliferation assay; type: cell-based; details: RPMI-8226, 72 h
cells [19] = details: Homo sapiens, Bortezomib-resistant RPMI-8226, 72 h
cells [20] = details: Homo sapiens, U-266, 72 h
[21] = Ratio of IC50 for inhibition of PI3K/mTOR in human ANBL6 cells assessed as reduction of cell viability to IC50 for inhibition of PI3K/mTOR in human ANBL6/BR resistant cells assessed as reduction of cell viability; details: condition multiple myeloma
cells [22] = details: Homo sapiens, Melphalan-resistant RPMI-8226 cell, 72 h
cells [23] = details: Homo sapiens, Bortezomib-resistant ANBL6 cell, 72 h
cells [24] = details: Homo sapiens, RPMI-8226, 72 h
[25] = Ratio of IC50 for inhibition of PI3K/mTOR in human RPMI-8226 cells assessed as reduction of cell viability to IC50 for inhibition of PI3K/mTOR in human RPMI-8226/BR resistant cells assessed as reduction of cell viability; details: condition multiple myeloma
[26] = Ratio of IC50 for inhibition of PI3K/mTOR in human RPMI-8226 cells assessed as reduction of cell viability to IC50 for inhibition of PI3K/mTOR in human melphalan-resistant RPMI-8226 cells assessed as reduction of cell viability; details: time 72 hrs; condition multiple myeloma
cells [27] = details: Homo sapiens, ANBL-6, 72 h
[28] = Ratio of IC50 for inhibition of BCR-ABL/KIT/LCK/EPHA/DDR in human RPMI-8226 cells assessed as reduction of cell viability to IC50 for inhibition of BCR-ABL/KIT/LCK/EPHA/DDR in human RPMI-8226/BR resistant cells assessed as reduction of cell viability; details: condition multiple myeloma
[29] = Ratio of IC50 for inhibition of BCR-ABL/KIT/LCK/EPHA/DDR in human ANBL6 cells assessed as reduction of cell viability to IC50 for inhibition of BCR-ABL/KIT/LCK/EPHA/DDR in human ANBL6/BR resistant cells assessed as reduction of cell viability; details: condition multiple myeloma
[30] = Ratio of IC50 for inhibition of BCR-ABL/KIT/LCK/EPHA/DDR in human RPMI-8226 cells assessed as reduction of cell viability to IC50 for inhibition of BCR-ABL/KIT/LCK/EPHA/DDR in human melphalan-resistant RPMI-8226 cells assessed as reduction of cell viability; details: time 72 hrs; condition multiple myeloma
cells [31] = details: Homo sapiens, Bortezomib-resistant RPMI-8226, 72 h; remark: listed apart in the source
cells [32] = details: Homo sapiens, U-266, 72 h; remark: listed apart in the source
cells [33] = details: Homo sapiens, Melphalan-resistant RPMI-8226 cell, 72 h; remark: listed apart in the source
cells [34] = details: Homo sapiens, RPMI-8226, 72 h; remark: listed apart in the source
cells [35] = details: Homo sapiens, Bortezomib-resistant ANBL6 cell, 72 h; remark: listed apart in the source
cells [36] = details: Homo sapiens, ANBL-6, 72 h; remark: listed apart in the source

Q: With `Cn1cnc(-c2cc3nccc(Oc4ccc(NC(=S)NC(=O)Cc5ccccc5)cc4F)c3s2)c1` as the compound, how does the IC50 [1] read?
A: 10 µM

Q: And the “Ratio IC50” value [2]?
A: 1.07

Q: What about the IC50 [3] of the same compound?
A: 10 µM

Q: And the IC50 [4]?
A: 8.91 µM

Q: What about the IC50 [5] of the same compound?
A: 10 µM

Q: And the “Ratio IC50” value [6]?
A: 1.55

Q: And the IC50 [7]?
A: 6.46 µM

Q: And the “Ratio IC50” value [8]?
A: 0.9

Q: And the IC50 [9]?
A: 9.33 µM

Q: Which IC50 [10] does the source give for `O=C(NOCC1CC1)c1ccc(F)c(F)c1Nc1ccc(I)cc1Cl` [CI-1040] here?
A: 5.13 µM

Q: And the “Ratio IC50” value [11]?
A: 0.6

Q: What about the IC50 [12] of the same compound?
A: 4.9 µM

Q: What about the IC50 [13] of the same compound?
A: 10 µM

Q: And the IC50 [14]?
A: 7.59 µM

Q: And the “Ratio IC50” value [15]?
A: 0.81

Q: And the “Ratio IC50” value [16]?
A: 0.27

Q: What about the IC50 [17] of the same compound?
A: 8.13 µM

Q: What about the IC50 [18] of the same compound?
A: 2.04 µM

Q: For `Cn1c(=O)n(-c2ccc(C(C)(C)C#N)cc2)c2c3cc(-c4cnc5ccccc5c4)ccc3ncc21` [DACTOLISIB], which IC50 (cells [19]) is on record?
A: 0.0382 µM

Q: And the IC50 (cells [20])?
A: 0.056 µM

Q: And the “Ratio IC50” value [21]?
A: 1.68

Q: And the IC50 (cells [22])?
A: 0.0922 µM

Q: What about the IC50 (cells [23]) of the same compound?
A: 0.0489 µM

Q: What about the IC50 (cells [24]) of the same compound?
A: 0.0172 µM

Q: What about the “Ratio IC50” value [25] of the same compound?
A: 0.45

Q: And the “Ratio IC50” value [26]?
A: 0.4

Q: What about the IC50 (cells [27]) of the same compound?
A: 0.0823 µM

Q: With `Cc1cn(-c2cc(NC(=O)c3ccc(C)c(Nc4nccc(-c5cccnc5)n4)c3)cc(C(F)(F)F)c2)cn1` [NILOTINIB] as the compound, how does the “Ratio IC50” value [28] read?
A: 1

Q: What about the “Ratio IC50” value [29] of the same compound?
A: 1

Q: What about the “Ratio IC50” value [30] of the same compound?
A: 1

Q: What about the IC50 (cells [31]) of the same compound?
A: 10 µM

Q: What about the IC50 (cells [32]) of the same compound?
A: 10 µM

Q: What about the IC50 (cells [33]) of the same compound?
A: 10 µM

Q: What about the IC50 (cells [34]) of the same compound?
A: 9.83 µM

Q: What about the IC50 (cells [35]) of the same compound?
A: 10 µM

Q: And the IC50 (cells [36])?
A: 10 µM
